The source of these data is patent US20090060851A1, “USE OF IDEBENONE FOR THE PREPARATION OF A TOPICALLY-APPLIED DEPIGMENTATION COMPOSITION AND CORRESPONDING COMPOSITION” (priority 2005, published 2009).

Structures are written as SMILES.

Data set [1] is described as follows: Idebenone dosing in skin cuts by gas chromatography (penetration). The format is in vivo, mice. To be noted: mouse skin, topical cream. How it is done:
Creams containing 5% and 2.5% w/w idebenone (IDB) in a neutral phase were prepared. Said creams and a cream having an identical formulation but without idebenone were applied on nude adult mice with 3 months of age. The cream with idebenone was applied on the right half of the body of the animals and the control cream on the left half according to the scheme detailed below. The animals were sacrificed 1, 2, 3 or 4 hours after applying the cream (p.a.). • Batch A: animal treated with 5% IDB (1 hour p.a.) • Batch B: animal treated with 2.5% IDB (1 hour p.a.) • Batch C: animal treated with 5% IDB (2 hours p.a.) • Batch D: animal treated with 2.5% IDB (2 hours p.a.) • Batch E: animal treated with 5% IDB (3 hours p.a.) • Batch F: animal treated with 2.5% IDB (3 hours p.a.) • Batch G: animal treated with 5% IDB (4 hours p.a.) • Batch H: animal treated with 2.5% IDB (4 hours p.a.) […]
Idebenone dosing by gas chromatography: The treated and control skin sections were placed epidermis side down on a cryostat stage and 300 micron thick sections parallel to the surface were obtained in such a manner so as to obtain a deep cut, a surface cut and a medium cut. […] Each extract was analyzed by gas chromatography using a Hewlett Packard 5890 gas chromatograph, using a capillary column with methyl silicone as stationary phase (HP-IMS, 25 m×0.2 mm, 0.33μ thick film). […]

The next data set relates to SK-MEL-28. The experiment in a line: Cytopathic effects on cell cultures, inverted microscope. The format is cell-based, human. As to the method: An experiment similar to the one described in the previous example was designed for the purpose of establishing whether idebenone inhibits melanogenesis in cells in culture, but in this case the cells were treated for only 1 day, whereas the results were evaluated on the third day.
An experiment similar to the one described in the previous example was designed for the purpose of establishing whether idebenone inhibits melanogenesis in cells in culture, but in this case the cells were treated for 2 days and the results were evaluated on the fourth day.
An experiment similar to the one described in the previous example was designed for the purpose of establishing whether idebenone inhibits melanogenesis in cells in culture, but in this case the cells were treated for 5 days and the results were evaluated on the fifth day.
A general note: Cytopathic effects are the visible damage that an infection or toxin causes in cultured cells.

The conditions of data set [2]: Arzneim. Forsch/drug res. 35 (II), 11, pp. 1704, 1985; cited from earlier work.

Regarding `COC1=C(OC)C(=O)C(CCCCCCCCCCO)=C(C)C1=O` [idebenone, 6-(10-hydroxydecyl)-2,3-dimethoxy-5-methyl-1,4-benzoquinone], the “Penetration of IDB in the skin” value in data set [1] is “penetrates the skin and is retained up to two hours after its application in the most superficial sections”. The Cytopathic effects entry in the data set with SK-MEL-28 (remaining dilutions (−2 to −6), treated 1 day) is recorded as “no cytopathic effect whatsoever”; in the data set with SK-MEL-28 (−1 dilution, treated 1 day), “cytopathic effects”; in the data set on SK-MEL-28 (−4, −5 and −6 dilutions, Example 8) it was “No cytopathic effect was observed”; with SK-MEL-28 (−4, −5 and −6 dilutions, treated 2 days) it was “No cytopathic effect was observed”. Besides, the Toxic effects reported entry in data set [2] is on record as “no significant toxic effects have been reported”.
